Like-named read-outs stand apart in the source and are kept apart here. Marks after values point to notes of the source that are not given here.
How the values were obtained:
[1] = rabbit plasma, 37° C., HPLC
Experimental: (§1) 0.1 ml samples were taken from each of the solutions, added respectively to 1 ml of blood plasma of rabbit (taken from New Zealand white rabbits, treated according to conventional methods, anticoagulated with heparin) or 1 ml of blood plasma of rat (taken from live SD rats, processed according to conventional methods, anti coagulated with heparin), homogeneously mixed, and placed in a thermostatic water bath at 37° C. for incubation with time being recorded. Samples were taken at different time points after the experiment began, and 2 ml of acetonitrile was immediately added. The samples were shaken and centrifuged for 5 min (15,000 rpm), and the supernatant was then taken for HPLC analysis.

[2] = rat plasma, 37° C., HPLC
Experimental: as §1

KM mice = conditions: for TI Mouse: TI=LD50/ED50, mouse; for Mouse ED50: disappearance of righting reflex, caudal vein injection
Experimental: (§2) Test samples for the experiment on rabbit were formulated to have corresponding concentrations based on the results from a preliminary test. […] Rats and mice were administered with samples having a fixed concentration of drugs, while the volume of administration altered according to actual situation. The volume of administration to rabbits was 1 mL/kg body weight.
(§3) ED50 and LD50 values concerning anesthesia were determined using a sequential method. Healthy KM mice (male), SD rats (male) and New Zealand White rabbits were used for test. […] For rabbits, the compounds were administered by injection at a constant rate via ear vein for 30 seconds. Before the test, a preliminary test was conducted to determine an approximate dosage (volume of administration) that leads to anesthetization (or death) of animals, which was set as the middle dosage in the formal test. […] The disappearance of righting reflex or death was used as indicators of pharmacological efficacy or toxicity, respectively. The formal test began with the administration of the middle dosage. If animals were anesthetized, a lower dosage was administered; if animals were not anesthetized, a higher dosage was administered, until the cycle was repeated for 3-4 times. LD50 and ED50 were calculated by a sequential method aot425 software. TI was calculated according to the following equation: TI=LD50/ED50.

SD rats = conditions: for TI Rat: TI=LD50/ED50, rat; for Rat ED50: disappearance of righting reflex, caudal vein injection
Experimental: as §2, §3

[3] = test system: New Zealand White rabbits; conditions: TI=LD50/ED50, rabbit
Experimental: as §2, §3

Kunming mice = conditions: tail intravenous injection, n = 5
Experimental: Rats and mice were administered with samples having a fixed concentration of drugs, while the volume of administration altered according to actual situation. The volume of administration to rabbits was 1 mL/kg body weight.
The periods during which the righting reflex of mice disappeared (latent period) and recovered (persistent period) were recorded.

in vivo [4] = conditions: male, KM, mouse, intravenous, caudal vein injection, confirmation test
Experimental: as §2, §3

in vivo [5] = conditions: male, SD, rat, intravenous, caudal vein injection
Experimental: as §2, §3

[6] = 3 mg/ml solution, confirmation test
[7] = 3 mg/ml solution, first test (*)
[8] = 6 mg/ml solution, confirmation test
[9] = 6 mg/ml solution, first test (*)
[10] = dosage 2 * ED50, 3 mg/ml solution
[11] = dosage 2 * ED50, 6 mg/ml solution

Compound	Dissociation percent 15 s [1] [%]	Dissociation percent 30 s [1] [%]	Dissociation percent 5 s [2] [%]	Dissociation percent 15 s [2] [%]	other results
CCN(C)CCC(F)C(=O)Oc1c(C(C)C)cccc1C(C)C.Cl (racemic) [E4, propofol 4-N-methyl-N-ethylamino-2-(R,S)-2-fluorobutyrate hydrochloride]	58.3	70.4	70.2	–	–
CC(C)NCC(CF)C(=O)Oc1c(C(C)C)cccc1C(C)C.CS(=O)(=O)O (racemic) [E6, propofol 3-N-isopropylamino-2-(R,S)-2-monofluoromethylpropionate methanesulfonate]	27.1	44.3	24.2	40.1	–
CC(C)c1cccc(C(C)C)c1OC(=O)C(F)CCCCCC(=O)[O-].CC(C)c1cccc(C(C)C)c1OC(=O)C(F)CCCCCC(=O)[O-].[Ca+2] (racemic) [F4, di[propofol 7-carboxyl-2-(R,S)-fluorocaprylate] calcium salt]	48.3	61.7	63.8	–	–
CC(C)c1cccc(C(C)C)c1OC(=O)C(CF)CCCCCCC(=O)[O-].CC(C)c1cccc(C(C)C)c1OC(=O)C(CF)CCCCCCC(=O)[O-].CC(C)c1cccc(C(C)C)c1OC(=O)C(CF)CCCCCCC(=O)[O-].[Al+3] (racemic) [F6, tri[propofol 8-carboxyl-2-(R,S)-monofluoromethylpelargonate] aluminum salt]	37.1	58.3	34.2	55.7	–
CC(C)c1cccc(C(C)C)c1OC(=O)C(F)CCOP(=O)([O-])[O-].[K+].[K+] (racemic) [G1, {1-[4-(2,6-diisopropylphenoxy)-4-oxo-3-(R,S)-3-fluoro-1-butyl]} phosphate monoester dipotassium salt]	43.7	68.7	54.1	67.4	Dissociation percent 30 s [2]: 86.9%
CC(C)c1cccc(C(C)C)c1OC(=O)C(CF)CP(=O)([O-])[O-].CC(C)c1cccc(C(C)C)c1OC(=O)C(CF)CP(=O)([O-])[O-].CC(C)c1cccc(C(C)C)c1OC(=O)C(CF)CP(=O)([O-])[O-].[Al+3].[Al+3] (racemic) [G6, tri[propofol 3-phosphoryl-2-(R,S)-2-monofluoromethylpropionate] dialuminum salt]	27.1	44.3	22.1	39.7	–
CC(C)c1cccc(C(C)C)c1OC(=O)[C@H](F)CCN(C)C.Cl [E2, Propofol 4-(N,N-dimethyl)amino-2-(R)-fluorobutyrate hydrochloride]	97.7	100	100	–	TI Mouse (KM mice; [6]): 3; TI Mouse (KM mice; [7]): 4*; TI Mouse (KM mice; [8]): 3.7; TI Mouse (KM mice; [9]): 3.6*; Mouse ED50 (KM mice; [6]): 15.4 mg/kg; Mouse ED50 (KM mice; [7]): 17.9 mg/kg; Mouse ED50 (KM mice; [8]): 13.0 mg/kg; Mouse ED50 (KM mice; [9]): 15.2 mg/kg; TI Rat (SD rats; 3 mg/ml solution): 3.8; TI Rat (SD rats; 6 mg/ml solution): 3.1; Rat ED50 (SD rats; 3 mg/ml solution): 9.8 mg/kg; Rat ED50 (SD rats; 6 mg/ml solution): 10.1 mg/kg; TI index [3]: 3.5; Latent Period (Kunming mice; [10]): 14.6 ± 0.9 s; Persistent period (Kunming mice; [10]): 383.6 ± 242.1 s; Latent Period (Kunming mice; [11]): 14.2 ± 1.9 s; Persistent period (Kunming mice; [11]): 543 ± 231 s
CC(C)c1cccc(C(C)C)c1OC(=O)[C@@H](CCN(C)C)C(F)(F)F.Cl [E3, propofol 4-N,N-dimethylamino-2-(R)-2-trifluoromethylbutyrate hydrochloride]	51.7	67.2	77.5	–	–
CC(C)c1cccc(C(C)C)c1OC(=O)[C@@H](F)CCCN(C)Cc1ccccc1.Cl [E5, propofol 5-N-methyl-N-benzylamino-2-(S)-2-fluorovalerate hydrochloride]	48.4	69.7	72.3	97.3	–
CC(C)c1cccc(C(C)C)c1OC(=O)[C@@H](F)CCN1CC1.Cl [E7, propofol 4-(aziridin-1-yl)-2-(S)-2-fluorobutyrate hydrochloride]	89.4	94.4	92.3	–	–
CC(C)c1cccc(C(C)C)c1OC(=O)[C@H](F)CCN1CCCC1.Cl [E8, propofol 4-(pyrrolidin-1-yl)-2-(R)-2-fluorobutyrate hydrochloride]	91.1	98.2	95.6	–	–
CC(C)c1cccc(C(C)C)c1OC(=O)C(F)CCC(=O)[O-].[K+] [F2, propofol 4-carboxyl-2-(S)-fluorovalerate potassium salt]	73.4	94.8	92.3	–	–
CC(C)c1cccc(C(C)C)c1OC(=O)C(CCC(=O)[O-])C(F)(F)F.[Li+] [F3, propofol 4-carboxyl-2-(R)-2-trifluoromethyl valerate lithium salt]	28.4	47.9	47.4	–	–
CC(C)c1cccc(C(C)C)c1OC(=O)C(F)CCCC(=O)[O-].CC(C)c1cccc(C(C)C)c1OC(=O)C(F)CCCC(=O)[O-].[Zn+2] [F5, di[propofol 5-carboxyl-2-(S)-fluorohexanoate] zinc salt]	34.9	58.8	63.2	80.3	–
CC(C)c1cccc(C(C)C)c1OC(=O)C(F)CC(=O)[O-].[Na+] [F7, Propofol-2-(R)-fluorobutyrate monoester sodium salt]	46.3	72.8	58.8	71.3	Dissociation percent 30 s [2]: 85.4%; TI Mouse (KM mice; [6]): 2.6; TI Mouse (KM mice; [7]): 2.8*; TI Mouse (KM mice; [8]): 3.1; TI Mouse (KM mice; [9]): 2.4*; Mouse ED50 (KM mice; [6]): 19.2 mg/kg; Mouse ED50 (KM mice; [7]): 21.4 mg/kg; Mouse ED50 (KM mice; [8]): 18.1 mg/kg; Mouse ED50 (KM mice; [9]): 20.7 mg/kg; TI Rat (SD rats; 3 mg/ml solution): 3.0; TI Rat (SD rats; 6 mg/ml solution): 3.5; Rat ED50 (SD rats; 3 mg/ml solution): 15.7 mg/kg; Rat ED50 (SD rats; 6 mg/ml solution): 12.5 mg/kg; TI index [3]: 2.6; Latent Period (Kunming mice; [10]): 20.2 ± 0.6 s; Persistent period (Kunming mice; [10]): 335.5 ± 218.1 s; Latent Period (Kunming mice; [11]): 16.2 ± 2.2 s; Persistent period (Kunming mice; [11]): 517 ± 231 s
CC(C)c1cccc(C(C)C)c1OC(=O)C(F)C(=O)[O-].[Na+] [F8, Propofol-2-(R)-fluoropropionate monoester sodium salt]	41.2	70.4	55.5	69.3	Dissociation percent 30 s [2]: 83.3%
CC(C)c1cccc(C(C)C)c1OC(=O)[C@@H](F)CCOP(=O)([O-])[O-].[Na+].[Na+] [G2, {1-[4-(2,6-diisopropylphenoxy)-4-oxo-3-(S)-3-fluoro-1-butyl]} phosphate monoester disodium salt]	37.2	54.3	48.5	69.7	TI Mouse (KM mice; [6]): 3.0; TI Mouse (KM mice; [7]): 2.8*; TI Mouse (KM mice; [8]): 2.3; TI Mouse (KM mice; [9]): 1.9*; Mouse ED50 (KM mice; [6]): 19.8 mg/kg; Mouse ED50 (KM mice; [7]): 23.7 mg/kg; Mouse ED50 (KM mice; [8]): 22.8 mg/kg; Mouse ED50 (KM mice; [9]): 25.6 mg/kg; TI Rat (SD rats; 3 mg/ml solution): 3.3; TI Rat (SD rats; 6 mg/ml solution): 2.8; Rat ED50 (SD rats; 6 mg/ml solution): 21.1 mg/kg; Latent Period (Kunming mice; [10]): 16.3 ± 0.8 s; Persistent period (Kunming mice; [10]): 383.6 ± 242.1 s; Latent Period (Kunming mice; [11]): 15.7 ± 2.3 s; Persistent period (Kunming mice; [11]): 571 ± 173 s
CC(C)c1cccc(C(C)C)c1OC(=O)[C@@H](CCOP(=O)([O-])[O-])C(F)(F)F.[Li+].[Li+] [G3, {1-[4-(2,6-diisopropylphenoxy)-4-oxo-3-(R)-3-trifluoromethyl-1-butyl]} phosphate monoester dilithium salt]	21.7	43.6	38.7	–	–
CC(C)c1cccc(C(C)C)c1O [Propofol, 2,6-diisopropylphenol]	–	–	–	–	TI Mouse (KM mice; [6]): 4.9; TI Mouse (KM mice; [8]): 3.8; TI Rat (SD rats; 3 mg/ml solution): 5.5; TI Rat (SD rats; 6 mg/ml solution): 4.9; LD50 (in vivo [4]; 3 mg/ml solution): 38.4 mg/kg; LD50 (in vivo [4]; 6 mg/ml solution): 42.9 mg/kg; LD50 (in vivo [5]; 3 mg/ml solution): 21.5 mg/kg; LD50 (in vivo [5]; 6 mg/ml solution): 17.4 mg/kg

From patent US9643917B2, “Water-soluble propofol derivatives and uses thereof” (JIANGSU NHWALUOKANG PHARMCEUTICAL RESEARCH AND DEVELOPMENT …, priority 2014, dated 2017)
